# Values of other authors in PMC9669016, “First-in-human phase Ia study of the PI3Kα inhibitor CYH33 in patients with solid tumors” (Nature Communications, 2022).
# Read-outs that look alike come from different tables or passages of the source.
# Tests used:
# [1] = design: method as in Study Protocol CYH33-101 Table 2; details: ref Study Protocol CYH33-101 Table 2; cited from earlier work
# [2] = system: KYSE410 human esophageal cancer xenograft; design: method as in Investigator's Brochure (IB) 12; details: ref Investigator's Brochure (IB) 12, cited from earlier work; for inhibition rate (tumor growth): multiple doses
# [3] = design: method as in Investigator's Brochure (IB) 12; details: ref Investigator's Brochure (IB) 12, cited from earlier work
# [4] = design: method as in Investigator's Brochure (IB) 12; details: human, without concentration dependency; ref Investigator's Brochure (IB) 12; cited from earlier work
# [5] = design: method as in Investigator's Brochure (IB) 12; details: ref Investigator's Brochure (IB) 12, cited from earlier work; remark: listed apart in the source
# Caco-2 cells = system: Caco-2 cells; design: method as in Investigator's Brochure (IB) 12; details: 2.00 - 10.0 µM; efflux transporters may be involved; ref Investigator's Brochure (IB) 12; cited from earlier work
# Beagle dogs [6] = system: Beagle dogs; design: method as in Investigator's Brochure (IB) 12; details: species wording unclear (Beagle dogs / rats); ref Investigator's Brochure (IB) 12; cited from earlier work
# SD rats [7] = system: SD rats; design: method as in Investigator's Brochure (IB) 12; details: ref Investigator's Brochure (IB) 12; cited from earlier work
# Beagle dogs [8] = system: Beagle dogs; design: method as in Investigator's Brochure (IB) 12; details: ref Investigator's Brochure (IB) 12; cited from earlier work
# SD rats [9] = system: SD rats; design: method as in Investigator's Brochure (IB) 12; details: long-term, ref Investigator's Brochure (IB) 12, cited from earlier work
compound,measurement,setting,value
"COC(=O)Nc1cc(C(F)(F)F)c(-c2nc(N3CCOCC3)c3cc(CN4CCN(S(C)(=O)=O)CC4)cn3n2)cn1 [CYH33, methyl (5-(6-((4-(methylsulfonyl)piperazin-1-yl)methyl)−4-morpholinopyrrolo[2,1-f][1,2,4]triazin-2-yl)−4-(trifluoromethyl)pyridin-2-yl)carbamate]",log P,[1],2.89
same,T/C ratio,[2]; 12.5 mg/kg oral for 21 days,approximately 30%
same,inhibition rate (tumor growth),[2]; 12.5 mg/kg,> 67%
same,inhibition rate (tumor growth),[2]; 25 mg/kg,> 90%
same,inhibition rate (tumor growth),[2]; 50 mg/kg,> 95%
same,exposure in tissues relative to plasma,"[3]; liver, adrenal gland, digestive tract, pancreas, kidney, spleen, ovaries",more than 4 times
same,concentration of parent drug at 72 h after administration relative to peak concentration,[3],0.5%
same,distribution into the red blood cells,[3],basically not distributed
same,exposure in brain tissue relative to plasma,[3],approximately 20%
same,"exposure in tissues, female rats relative to male rats (higher)",[3],7 - 18 fold
same,plasma protein binding (PPB),[4],94.9%
same,number of metabolites detected in vivo,[5],14
same,urinary excretion,[5],less than 1 % of the dose
same,cumulative excretion of parent drug in feces,[5]; within 96 h after administration,approximately 24 % of the dose
same,permeability,Caco-2 cells,moderately permeable
same,"arrhythmia, ECG, blood pressure and body temperature parameters",Beagle dogs [6],no drug-related arrhythmia or changes
same,"MTD, acute toxicity",SD rats [7],≥ 600 mg/kg
same,"maximum tolerated dose (MTD), acute toxicity",Beagle dogs [8],> 120 mg/kg
same,highest non-severely toxic dose (HNSTD),SD rats [9]; female SD rats,3 mg/kg
same,highest non-severely toxic dose (HNSTD),SD rats [9]; male SD rats,8 mg/kg
